Values of other authors in patent publication US9024067B2, “Process for preparing carboxylic acid amides useful in the treatment of muscular disorders” (Canbex Therapeutics Limited, priority 2009, dated 2015).

Test system: spasticity in CREAE mice
Conditions: initial studies (WO2005/080316)

CC(CO)NC(=O)c1cccc(/C=C\CCCC(=O)N(C)C)c1 (stereo not shown) [VSN-16]
effect on spasticity: marked effect on spasticity
